According to article PMC7918738, “Microtubule Destabilizing Sulfonamides as an Alternative to Taxane-Based Chemotherapy” (International Journal of Molecular Sciences, 2021):
Values after ≈ are worked out from the molar mass of the structure shown. Read-outs that look alike come from different tables or passages of the source.

Assays:
[1] = test system: HT-29 (colon adenocarcinoma); test: Antiproliferative activity against CA-4-resistant HT-29 with or without verapamil (sensitivity to MDR pumps, XTT); format: cell-based, human; details: Homo sapiens, read-out: Antiproliferative Activity IC50 HT-29
Text: Detecting changes in drug potency when inhibiting MDR-mediated efflux reflect that these transporters reduce the intracellular drug concentration. HT-29 has been reported to express moderate levels of MDR1, accounting for a resistant phenotype. A comparison of the antiproliferative IC50 values of each MDS in the presence or absence of verapamil provides an estimate of the susceptibility of each compound to efflux pumps.
MCF7 (human breast carcinoma), SKOV-3 (human ovarian carcinoma), OVCAR-3 (human ovarian carcinoma), OVCAR-8 (human ovarian carcinoma), and HeLa (human cervical carcinoma) cell lines were cultured in Dulbecco’s Modified Eagle’s Medium (DMEM) (Gibco, Thermo Fischer Scientific) containing 10% (v/v) heat-inactivated fetal bovine serum (HIFBS) (Lonza-Cambrex, Karlskoga, Sweden), 2 mM L-glutamine (Lonza-Cambrex, Karlskoga, Sweden), 100 μg/mL streptomycin, and 100 IU/mL penicillin (Lonza-Cambrex) at 37 °C in humidified 95% air and 5% CO2. HT-29 (human colon carcinoma), IGROV-1 (human ovarian carcinoma), and A2780 (human ovarian carcinoma) cell lines were cultured in RPMI 1640 medium (Gibco, Thermo Fischer Scientific) supplemented with 10% HIFBS, 100 μg/mL streptomycin, and 100 IU/mL penicillin at 37 °C in humidified 95% air and 5% CO2 atmosphere. The presence of mycoplasma was routinely checked with MycoAlert kit (Lonza-Cambrex) and only mycoplasma-free cells were used in the experiments. Ovarian tumor cell lines were originally acquired from Dr Atanasio Pandiella from Centro de Investigación del Cáncer (CIC), Salamanca, Spain. HeLa, HT-29 and MCF7 tumor cell lines were provided by Dr Faustino Mollinedo from Centro de Investigaciones Biológicas Margarita Salas, Madrid, Spain.
MCF7, HeLa, and HT-29 cell proliferation, when treated with the corresponding compounds, were determined using the XTT (sodium 3’-[1(phenylaminocarbonyl)-3,4-tetrazolium]-bis(4-methoxy-6-nitro)-benzenesulfonic acid hydrate) cell proliferation kit (Roche Molecular Biochemicals, Mannheim, Germany). A freshly prepared mixture of XTT labeling reagent with 0.02% (v/v) PMS (N-methyl-dibenzopyrazine methyl sulfate) electron coupling reagent was added to cells (50 µL/well in 96-well plates, total volume of 160 µL/well). Cells were incubated under standard culture conditions for 4 h (MCF7 and HeLa) or 6 h (HT-29). The absorbance of the formazan product generated was measured at 450 nm using a multi-well plate reader. SKOV-3, OVCAR-3, OVCAR-8, IGROV-1, A-2780 cell proliferation, when treated with the corresponding compound, were determined using MTT (3-(4,5-dimethylthiazol-2-yl)-2,5-diphenyl-2H-tetrazolium bromide) (Sigma-Aldrich, St. Louis, MO, USA). MTT in Phosphate Buffer Saline (PBS) (5 mg/ml) was added to cells (110 µL/well in 24-well plates, total volume of 1110 µL/well). After 1 hour of incubation, the medium was aspirated, and formazan violet crystals were dissolved in dimethyl sulfoxide (DMSO) (500 µL/well). Absorbance was measured at 570 nm in a plate reader (Ultra Evolution, Tecan, Männedorf, Suiza). To determine cell viability, cells in exponential growth phase were seeded (100 µL/well in 96-well plates and 1000 µL/well in 24-well plates) with appropriate cell line concentration (1.5·10^4 cells/mL for MCF7 and HeLa, 3·10^4 cells/mL for HT-29, and 1·10^4 cells/mL for SKOV-3, OVCAR-3, OVCAR-8, IGROV-1, and A-2780) in complete RPMI 1640 or DMEM medium at 37°C and 5% CO2 atmosphere. After 24 h incubation, to allow cells to attach to the plates, all compounds were added at 1 µM concentration and the effect on the proliferation was evaluated 72 h post-treatment. […] Non-linear curves fitting the experimental data were carried out for each compound. Compounds were dissolved in DMSO and the final solvent concentrations never exceeded 0.5% (v/v). The control wells included […] with 0.5% (v/v) DMSO and the positive control. 10 µM verapamil was included as a control for the HT-29 cell line.

[2] = Aqueous solubility, saturation shake-flask method, UV absorbance; details: phosphate buffer, pH 7, aqueous buffer, thermodynamic from solid
Description: UV absorbance at three maximum absorbance wavelengths of selected compounds was measured after 48 h shaking and subsequent microfiltration.
The aqueous solubility of the sulfonamides was determined using an approach based on the saturation shake-flask method. Tested compounds (1–2 mg) were stirred in pH 7.0 phosphate buffer (300 µL) for 48 h at room temperature. The resulting suspension was filtered over a 45 µm filter to discard insoluble residues, and the concentration in the supernatant was measured by UV absorbance. To determine the concentration, a scan between 270 and 400 nm was performed in a Helios-α UV-320 Spectrophotometer (Thermo-Spectronic, Thermo Fischer Scientific, Waltham, MA, USA) for each tested compound. Then, three maximum wavelengths of absorbance per compound were selected from the previous scan and calibration curves were performed at these three wavelengths. Solubility results are given as the average of the three measurements.

[3] = HT-29, 72 h, XTT, without verapamil

Compound: COc1cc(N(Cc2ccccc2)S(=O)(=O)c2ccc(N(C)C)cc2)cc(OC)c1OC [Compound 35a]
- IC50 [1, 3]: 165 nM

Compound: CCN(c1cc(OC)c(OC)c(OC)c1)S(=O)(=O)c1ccc(N(C)C)cc1 [Compound 30]
- IC50 [1, 3]: 460 nM
- solubility at 48 h [2]: 6 µg/mL (≈ 15.2 µM)

Compound: COc1ccc(S(=O)(=O)N(C)c2cc(OC)c(OC)c(OC)c2N)cc1 [Compound 13]
- IC50 [1, 3]: > 1000 nM

Compound: COc1cc(N(C)S(=O)(=O)c2ccc(N)cc2)cc(OC)c1OC [Compound 27]
- IC50 [1, 3]: > 1000 nM
- solubility at 48 h [2]: 25 µg/mL (≈ 70.9 µM)

Compound: COc1ccc(S(=O)(=O)N(C(C)=O)c2cc(OC)c(OC)c(OC)c2)cc1 [Compound 5]
- IC50 [1, 3]: 747 nM
- melting point: 190 to 195 °C
- solubility at 48 h [2]: 38 µg/mL (≈ 96.1 µM)

Compound: COc1cc(NS(=O)(=O)c2ccc(NC=O)cc2)cc(OC)c1OC [Compound 36]
- IC50 [1, 3]: > 1000 nM
- solubility at 48 h [2]: 27 µg/mL (≈ 73.7 µM)

Compound: COc1cc(NS(=O)(=O)c2ccc(N)cc2)cc(OC)c1OC [Compound 26]
- IC50 [1, 3]: > 1000 nM
- melting point: 177 to 179 °C
- solubility at 48 h [2]: 28 µg/mL (≈ 82.7 µM)

Compound: COc1ccc(S(=O)(=O)Nc2cc(OC)c(OC)c(OC)c2)cc1N [Compound 41]
- IC50 [1, 3]: 277 nM
- solubility at 48 h [2]: 89 µg/mL (≈ 242 µM)

Compound: COc1ccc(S(=O)(=O)n2nnc3c(OC)c(OC)c(OC)cc32)cc1 [Compound 23]
- IC50 [1, 3]: > 1000 nM
- solubility at 48 h [2]: 41 µg/mL (≈ 108 µM)

Compound: CNc1cc(S(=O)(=O)N(C)c2cc(OC)c(OC)c(OC)c2)ccc1OC [Compound 48a]
- IC50 [1, 3]: > 1000 nM

Compound: COc1cc(N(CC#N)S(=O)(=O)c2ccc(N(C)C)cc2)cc(OC)c1OC [Compound 32]
- IC50 [1, 3]: 123 nM
- solubility at 48 h [2]: 8 µg/mL (≈ 19.7 µM)

Compound: COc1ccc(S(=O)(=O)N(C)c2cc(OC)c(OC)c(OC)c2)cc1N(C)C [Compound 48b]
- IC50 ([1]; HT-29, 72 h): > 1000 nM

Compound: COc1cc(NS(=O)(=O)c2ccc([N+](=O)[O-])cc2)cc(OC)c1OC [Compound 25]
- IC50 [1, 3]: > 1000 nM
- melting point: 138 to 140 °C

Compound: COc1ccc(S(=O)(=O)Nc2cc(OC)c(OC)c(OC)c2N(C)C)cc1 [Compound 18]
- IC50 [1, 3]: > 1000 nM

Compound: COc1ccc(S(=O)(=O)N(C(=O)OCc2ccccc2)c2cc(OC)c(OC)c(OC)c2)cc1 [Compound 10]
- IC50 [1, 3]: > 1000 nM

Compound: COc1ccc(S(=O)(=O)Nc2cc(OC)c(OC)c(OC)c2NCN(c2cc(OC)c(OC)c(OC)c2N)S(=O)(=O)c2ccc(OC)cc2)cc1 [Compound 14]
- IC50 [1, 3]: > 1000 nM

Compound: COc1ccc(S(=O)(=O)Nc2cc(OC)c(OC)c(OC)c2)cc1[N+](=O)[O-] [Compound 40]
- IC50 [1, 3]: > 1000 nM

Compound: COc1cc(N(C(C)=O)S(=O)(=O)c2ccc(N(C)C)cc2)cc(OC)c1OC [Compound 31]
- IC50 [1, 3]: 140 nM
- solubility at 48 h [2]: 18 µg/mL (≈ 44.1 µM)

Compound: CCN(c1cc(OC)c(OC)c(OC)c1)S(=O)(=O)c1ccc(OC)cc1 [Compound 3]
- IC50 [1, 3]: 913 nM
- melting point: 140 to 143 °C
- solubility at 48 h [2]: 30 µg/mL (≈ 78.6 µM)

Compound: CCOC(=O)CN(c1cc(OC)c(OC)c(OC)c1)S(=O)(=O)c1ccc(OC)cc1 [Compound 7]
- IC50 [1, 3]: 237 nM
- melting point: 123 to 127 °C

Compound: COc1ccc(S(=O)(=O)Nc2cc(OC)c(OC)c(OC)c2NC(C)=O)cc1 [Compound 15]
- IC50 [1, 3]: > 1000 nM
- solubility at 48 h [2]: 230 µg/mL (≈ 560 µM)

Compound: COc1cc(NS(=O)(=O)c2ccc(N(C)C)cc2)cc(OC)c1OC [Compound 28]
- IC50 [1, 3]: 887 nM
- solubility at 48 h [2]: 15 µg/mL (≈ 40.9 µM)

Compound: COc1ccc(S(=O)(=O)N(C)c2cc(OC)c(OC)c(OC)c2NC(C)=O)cc1 [Compound 16]
- IC50 [1, 3]: > 1000 nM
- melting point: 205 to 210 °C

Compound: COc1ccc(S(=O)(=O)Nc2cc(OC)c(OC)c(OC)c2N)cc1 [Compound 12]
- IC50 [1, 3]: > 1000 nM
- solubility at 48 h [2]: 158 µg/mL (≈ 429 µM)

Compound: COc1ccc(/C=C\c2cc(OC)c(OC)c(OC)c2)cc1O [Combretastatin A-4, reference compound]
- IC50 [1, 3]: 305 nM

Compound: CCOC(=O)CNc1cc(S(=O)(=O)N(C)c2cc(OC)c(OC)c(OC)c2)ccc1OC [Compound 46]
- IC50 [1, 3]: 113 nM

Compound: COc1ccc(S(=O)(=O)Nc2cc(OC)c(OC)c(OC)c2NC=O)cc1 [Compound 17]
- IC50 [1, 3]: > 1000 nM

Compound: COc1cc(N(C)S(=O)(=O)c2ccc(N(C)C)cc2)cc(OC)c1OC [Compound 29a]
- IC50 [1, 3]: 103 nM
- melting point: 134 to 140 °C
- solubility at 48 h [2]: 7 µg/mL (≈ 18.4 µM)

Compound: COc1ccc(S(=O)(=O)N(CC(=O)O)c2cc(OC)c(OC)c(OC)c2)cc1 [Compound 8]
- IC50 [1, 3]: > 1000 nM
- melting point: 151 to 158 °C

Compound: COc1ccc(S(=O)(=O)Nc2cc(OC)c(OC)c(OC)c2[N+](=O)[O-])cc1 [Compound 11]
- IC50 [1, 3]: > 1000 nM
- solubility at 48 h [2]: 88 µg/mL (≈ 221 µM)

Compound: CCOC(=O)CNc1cc(S(=O)(=O)N(CC(=O)OCC)c2cc(OC)c(OC)c(OC)c2)ccc1OC [Compound 47]
- IC50 [1, 3]: > 1000 nM

Compound: COc1cc(N(CC(=O)O)S(=O)(=O)c2ccc(N(C)C)cc2)cc(OC)c1OC [Compound 34]
- IC50 [1, 3]: > 1000 nM
- melting point: 168 to 170 °C

Compound: COc1ccc(S(=O)(=O)N(C)c2cc(OC)c(OC)c(OC)c2)cc1 [Compound 2a]
- IC50 [1, 3]: 143 nM
- melting point: 123 to 124 °C
- solubility at 48 h [2]: 27 µg/mL (≈ 73.5 µM)

Compound: COc1ccc(S(=O)(=O)Nc2cc(OC)c(OC)c(OC)c2Br)cc1 [Compound 20]
- IC50 [1, 3]: > 1000 nM
- solubility at 48 h [2]: 87 µg/mL (≈ 201 µM)

Compound: COc1ccc(S(=O)(=O)N(CC#N)c2cc(OC)c(OC)c(OC)c2)cc1 [Compound 6]
- IC50 [1, 3]: 230 nM
- solubility at 48 h [2]: 33 µg/mL (≈ 84.1 µM)

Compound: COc1ccc(S(=O)(=O)N(Cc2ccccc2)c2cc(OC)c(OC)c(OC)c2)cc1 [Compound 9]
- IC50 [1, 3]: > 1000 nM

Compound: COc1cc(N(C(=O)OCc2ccccc2)S(=O)(=O)c2ccc(N(C)C)cc2)cc(OC)c1OC [Compound 35b]
- IC50 [1, 3]: 690 nM

Compound: COc1ccc(S(=O)(=O)N(CCBr)c2cc(OC)c(OC)c(OC)c2)cc1 [Compound 4]
- IC50 ([1]; HT-29, 72 h): 503 nM

Compound: COc1ccc(S(=O)(=O)N(C)c2cc(OC)c(OC)c(OC)c2N(C)C)cc1 [Compound 19]
- IC50 [1, 3]: > 1000 nM

Compound: COc1ccc(S(=O)(=O)N(CC#N)c2cc(OC)c(OC)c(OC)c2)cc1N [Compound 44]
- IC50 [1, 3]: 61 nM
- melting point: 139 to 145 °C
- solubility at 48 h [2]: 46 µg/mL (≈ 113 µM)

Compound: COc1ccc(S(=O)(=O)Nc2cc(OC)c(OC)c(OC)c2NC(=O)CNC(=O)OC(C)(C)C)cc1 [Compound 21]
- IC50 [1, 3]: > 1000 nM
- solubility at 48 h [2]: 357 µg/mL (≈ 679 µM)

Compound: COc1ccc(S(=O)(=O)Nc2cc(OC)c(OC)c(OC)c2)cc1 [Compound 1a]
- IC50 [1, 3]: 897 nM
- melting point: 115 to 116 °C
- solubility at 48 h [2]: 83 µg/mL (≈ 235 µM)

Compound: COc1ccc(S(=O)(=O)n2cnc3c(OC)c(OC)c(OC)cc32)cc1 [Compound 24]
- IC50 [1, 3]: > 1000 nM

Compound: CNc1ccc(S(=O)(=O)Nc2cc(OC)c(OC)c(OC)c2)cc1 [Compound 37]
- IC50 [1, 3]: 807 nM
- melting point: 200 to 206 °C
- solubility at 48 h [2]: 43 µg/mL (≈ 122 µM)

Compound: COc1ccc(S(=O)(=O)N(c2cc(OC)c(OC)c(OC)c2)S(=O)(=O)c2ccc(OC)cc2)cc1 [Compound 1b]
- IC50 [1, 3]: > 1000 nM
- solubility at 48 h [2]: 108 µg/mL (≈ 206 µM)

Compound: CCOC(=O)CN(c1cc(OC)c(OC)c(OC)c1)S(=O)(=O)c1ccc(N(C)C)cc1 [Compound 33]
- IC50 [1, 3]: 863 nM

Compound: CCN(c1cc(OC)c(OC)c(OC)c1)S(=O)(=O)c1ccc(OC)c(N)c1 [Compound 43]
- IC50 [1, 3]: 63 nM
- solubility at 48 h [2]: 58 µg/mL (≈ 146 µM)
